Target: T1, human SGLT2 (Homo sapiens, UniProt P31639, I433V)
T1 construct: expressed in transfected cells; host or cells: COS-7 cells (RIKEN CELL BANK RCB0539), transient electroporation with plasmid KL29
T1 sequence (P31639 1-672 I433V): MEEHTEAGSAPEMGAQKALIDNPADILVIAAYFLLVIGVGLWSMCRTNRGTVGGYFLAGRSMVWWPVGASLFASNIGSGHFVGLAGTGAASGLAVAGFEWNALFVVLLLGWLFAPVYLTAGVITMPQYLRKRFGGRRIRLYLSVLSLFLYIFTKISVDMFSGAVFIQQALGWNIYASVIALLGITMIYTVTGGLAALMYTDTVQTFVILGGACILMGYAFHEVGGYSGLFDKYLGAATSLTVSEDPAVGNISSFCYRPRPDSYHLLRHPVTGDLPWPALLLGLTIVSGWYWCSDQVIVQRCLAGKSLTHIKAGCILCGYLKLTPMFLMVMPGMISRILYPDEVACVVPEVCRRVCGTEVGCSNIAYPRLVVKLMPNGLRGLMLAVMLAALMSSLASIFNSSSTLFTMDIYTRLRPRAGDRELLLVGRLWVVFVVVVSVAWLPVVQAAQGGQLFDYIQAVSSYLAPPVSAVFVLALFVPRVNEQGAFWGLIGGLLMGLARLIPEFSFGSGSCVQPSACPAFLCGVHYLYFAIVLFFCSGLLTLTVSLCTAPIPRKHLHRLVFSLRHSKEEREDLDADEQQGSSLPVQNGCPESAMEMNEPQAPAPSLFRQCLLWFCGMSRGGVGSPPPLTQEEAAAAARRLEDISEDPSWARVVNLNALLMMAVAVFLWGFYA
Assay: Assay for inhibitory effect on human SGLT2 activity (uptake of methyl-α-D-glucopyranoside in COS-7 cells expressing transiently human SGLT2)
Format: cell-based
Conditions: methyl-α-D-(U-14C)glucopyranoside uptake, 37° C., 2 hours, read-out: IC50 (concentration at which 50% of methyl-α-D-glucopyranoside uptake was inhibited)
Method: Assay for Inhibitory Effect on Human SGLT2 Activity
1) Construction of the Plasmid Vector Expressing Human SGLT2
Preparation of the cDNA library for PCR amplification was performed by reverse transcription of a total RNA deprived from human kidney (Ori gene) with oligo dT as the primer, using SUPERSCRIPT Preamplification System (Gibco-BRL: LIFE TECHNOLOGIES). The DNA fragment coding for human SGLT2 was amplified by the PCR reaction using Pfu DNA Polymerase (made by Stratagene), in which the human kidney cDNA library described above was used as the template and the following oligo nucleotides 0702F and 0712R, presented as Sequence Numbers 1 and 2 respectively, were used as the primers. The amplified DNA fragment was ligated into pCR-Blunt (Invitrogen), a vector for cloning, according to standard method of the kit. The Escherichia coli HB101 Competent Cell (made by TOYOBO Co., Ltd.) was transformed according to usual method and then selection of the transformants was performed on the LB agar medium containing 50 μg/mL of kanamycin. After plasmid DNA was extracted and purified from the one of the transformants, amplifying of the DNA fragment coding for human SGLT2 was performed by the PCR reaction using Pfu DNA Polymerase (made by Stratagene), in which the following oligo nucleotides 0714F and 0715R, presented as Sequence Numbers 3 and 4 respectively, were used as the primers. The amplified DNA fragment was digested with restriction enzymes, Xho I and Hind III, and then purified with Wizard Purification System (Promega). This purified DNA fragment was inserted at the corresponding restriction sites of pcDNA3.1 (−) Myc/His—A (Invitrogen), avector for expressing of fusion protein. The Escherichia coli HB101 Competent Cell (made by TOYOBO Co., Ltd.) was transformed according to usual method and then selection of the transformant was performed on the LB agar medium containing 100 μg/mL of ampicillin. After plasmid DNA was extracted and purified from this transformant, the base sequence of the DNA fragment inserted at the multi-cloning sites of the vector pcDNA3.1 (−) Myc/His—A was analyzed. […] Sequentially, a clone in which valine is substituted for isoleucine-433 was obtained. This plasmid-vector expressing human SGLT2 in which the peptide presented as Sequence Number 5 is fused to the carboxyl terminal alanine residue was designated KL29.
2) Preparation of the Cells Expressing Transiently Human SGLT2
KL29, the plasmid coding human SGLT2, was transfected into COS-7 cells (RIKEN CELL BANK RCB0539) by electroporation. Electroporation was performed with GENE PULSER II (Bio-Rad Laboratories) under the condition: 0.290 kV, 975 μF, 2×10^6 cells of COS-7 cell and 20 μg of KL29 in 500 μL of OPTI-MEM I medium (Gibco-BRL: LIFE TECHNOLOGIES) in the 0.4 cm type cuvette. […]

IC50 | Structure (SMILES)
45 nM | Cc1cc(C)c(Cc2ccc(CCO)cc2)c(O[C@@H]2O[C@H](CO)[C@@H](O)[C@H](O)[C@H]2O)n1 [Example 20, 2-(β-D-Glucopyranosyloxy)-3-[4-(2-hydroxyethyl)benzyl]-4,6-dimethylpyridine]
45 nM | COc1ccc(Cc2c(C)cc(C)nc2O[C@@H]2O[C@H](CO)[C@@H](O)[C@H](O)[C@H]2O)cc1 [Example 19, 2-(β-D-Glucopyranosyloxy)-3-(4-methoxybenzyl)-4,6-dimethyl-pyridine]
55 nM | COc1ccc(Cc2c(C)cc(OC)nc2O[C@@H]2O[C@H](CO)[C@@H](O)[C@H](O)[C@H]2O)cc1 [Example 21, 2-(β-D-Glucopyranosyloxy)-6-methoxy-3-(4-methoxybenzyl)-4-methylpyridine]
41 nM | CCc1ccc(Cc2c(C)cc(C)nc2O[C@@H]2O[C@H](CO)[C@@H](O)[C@H](O)[C@H]2O)cc1 [Example 18, 3-(4-Ethylbenzyl)-2-(β-D-glucopyranosyloxy)-4,6-dimethyl-pyridine]
